US20130116241A1, “NOVEL INHIBITOR COMPOUNDS OF PHOSPHODIESTERASE TYPE 10A” (AbbVie Inc., priority 2011, published 2013)
pIC50: −log10 of the molar value.

biological target: human PDE10A (UniProt Q9Y233); experiment: Measurement of PDE activity (recombinant enzyme, HTRF cAMP kit); type: biochemical; details: Table 1, substrate 20 nM for PDE10, 60 minutes at 29 C, read-out: IC50
Experimental: The recombinant PDE proteins are used in in vitro enzymatic reaction for measurement of PDE activity. These recombinant proteins, including PDE10A (human, rat and mouse PDE10) and isoforms of PDEs 1, 3, 4, and 5, were purchased from commercial vendor BPS Bioscience. The enzymatic activity of PDEs was determined by cAMP measurement kit from CisBio (IBA) using HTRF technology.
The PDE enzymatic reaction was carried out in assay buffer (20 mM Tris-HCl pH7.5, 10 mM MgCl2, 0.1% bovine serum albumin) containing enzyme and substrate. The PDE enzymes concentration ranged from 10 pM-250 pM, depending on each enzyme's specific activity. The substrate cyclic nucleotide (cAMP or cGMP) concentration used in the assay was 20 nM for PDE10, and 100 nM for other PDEs. The inhibitory effect of compound was determined by incubating various concentration of inhibitor in the enzymatic assay. Typically, compound was serial diluted in DMSO then further diluted in assay buffer. Next, the compound at varying concentration was mixed with PDE enzyme. The reaction was initiated by addition of cyclic nucleotide substrate, and incubated for 60 minutes at 29 C. The reaction was stopped by addition of lysis buffer from assay kit. The cAMP-d2 and anti-cAMP cryptate in the lysis buffer detected the level of cAMP left from the PDE hydrolysis reaction. The PDE activity is reversely correlated with the amount of cAMP left in the reaction and can be converted to the percent activity of an uninhibited control (100%). Thus, IC50 value of inhibitor can be obtained by plotting inhibitor concentration against PDE activity at that concentration.

human PDE10A, sequence (Q9Y233 290-1055 limits assumed): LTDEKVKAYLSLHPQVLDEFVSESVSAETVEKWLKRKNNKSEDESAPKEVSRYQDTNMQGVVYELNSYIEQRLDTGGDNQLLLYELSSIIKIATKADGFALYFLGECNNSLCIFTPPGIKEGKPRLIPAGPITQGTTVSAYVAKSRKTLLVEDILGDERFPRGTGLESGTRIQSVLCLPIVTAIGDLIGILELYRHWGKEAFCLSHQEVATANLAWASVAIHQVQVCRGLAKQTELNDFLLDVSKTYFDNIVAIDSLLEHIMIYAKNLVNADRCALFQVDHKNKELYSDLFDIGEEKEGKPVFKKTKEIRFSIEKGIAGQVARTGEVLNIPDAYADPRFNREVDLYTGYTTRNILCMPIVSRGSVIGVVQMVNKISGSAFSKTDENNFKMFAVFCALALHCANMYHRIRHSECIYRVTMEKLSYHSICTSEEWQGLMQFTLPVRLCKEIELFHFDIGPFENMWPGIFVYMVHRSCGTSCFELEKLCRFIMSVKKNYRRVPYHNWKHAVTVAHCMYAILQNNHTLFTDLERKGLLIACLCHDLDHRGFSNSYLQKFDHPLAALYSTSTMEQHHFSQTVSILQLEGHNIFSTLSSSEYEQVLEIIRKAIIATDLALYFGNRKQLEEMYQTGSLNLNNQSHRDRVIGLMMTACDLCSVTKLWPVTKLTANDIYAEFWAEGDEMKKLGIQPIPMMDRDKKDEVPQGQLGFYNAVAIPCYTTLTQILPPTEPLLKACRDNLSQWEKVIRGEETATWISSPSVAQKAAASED

First: 8-(2-Fluoro-5-methoxyphenyl)-2-[2-(quinolin-2-yl)ethyl]phthalazin-1(2H)-one [Example 164]
Second: O=c1c2c(-c3ccncc3)cccc2ccn1C1CC1c1ccc2ccccc2n1 (racemic) [Example 222, anti (rac) 8-(Pyridin-4-yl)-2-(2-(quinolin-2-yl)cyclopropyl)isoquinolin-1(2H)-one]
The pIC50 of the first is lower: 6.70 to 7.00 for the first, greater than 7.00 for the second. The second is the more potent here.

`O=c1c2c(-c3ccncc3)csc2ccn1C1CC1c1ccc2ccccc2n1` (racemic) [Example 224, anti (rac) 3-(Pyridin-4-yl)-5-(2-(quinolin-2-yl)cyclopropyl)thieno[3,2-c]pyridin-4(5H)-one] and `O=c1c2c(-c3ccncc3)cccc2cnn1C1CC1c1ccc2ccccc2n1` (racemic) [Example 226, anti (rac) 8-Pyridin-4-yl-2-(2-quinolin-2-yl-cyclopropyl)-2H-phthalazin-1-one 2,2,2,-trifluoroacetate] cannot be ordered by pIC50: greater than 7.00 for the first, greater than 7.00 for the second.

`O=c1c2c(NC3COC3)cccc2ccn1[C@@H]1C[C@H]1c1ccc2ccccc2n1` (racemic) [Example 235, anti 8-(Oxetan-3-ylamino)-2-(2-(quinolin-2-yl)cyclopropyl)isoquinolin-1(2H)-one] and `O=c1c2c(-c3cncnc3)cccc2ccn1[C@@H]1C[C@H]1c1ccc2ccccc2n1` (racemic) [Example 240, anti 8-(pyrimidin-5-yl)-2-(2-(quinolin-2-yl)cyclopropyl)isoquinolin-1(2H)-one] cannot be ordered by pIC50: greater than 7.00 for the first, greater than 7.00 for the second.

`O=c1c2c(-c3ccnnc3)coc2ccn1[C@@H]1C[C@H]1c1ccc2ccccc2n1` (relative stereo) [Example 232, anti 3-(Pyridazin-4-yl)-5-(2-(quinolin-2-yl)cyclopropyl)furo[3,2-c]pyridin-4(5H)-one] and `O=c1c2c(-c3ccncc3)coc2ccn1[C@@H]1C[C@H]1c1ccc2ccccc2n1` (relative stereo) [Example 233, anti 3-(pyridin-4-yl)-5-(2-(quinolin-2-yl)cyclopropyl)furo[3,2-c]pyridin-4(5H)-one] cannot be ordered by pIC50: greater than 7.00 for the first, greater than 7.00 for the second.

`Cn1cc(-c2cccc3ccn([C@@H]4C[C@H]4c4ccc5ccccc5n4)c(=O)c23)cn1` (relative stereo) [Example 241, anti 8-(1-methyl-1H-pyrazol-4-yl)-2-(2-(quinolin-2-yl)cyclopropyl)isoquinolin-1(2H)-one] and `O=c1c2c(-c3ccncc3F)cccc2ccn1[C@@H]1C[C@H]1c1ccc2ccccc2n1` (relative stereo) [Example 242, anti 8-(3-fluoropyridin-4-yl)-2-(2-(quinolin-2-yl)cyclopropyl)isoquinolin-1(2H)-one] cannot be ordered by pIC50: greater than 7.00 for the first, greater than 7.00 for the second.

`O=c1c2c(-c3ccnc(F)c3)cccc2ccn1[C@@H]1C[C@H]1c1ccc2ccccc2n1` (relative stereo) [Example 243, anti 8-(2-fluoropyridin-4-yl)-2-(2-(quinolin-2-yl)cyclopropyl)isoquinolin-1(2H)-one] and `N#CC1CCN(c2cccc3ccn([C@@H]4C[C@H]4c4ccc5ccccc5n4)c(=O)c23)CC1` (relative stereo) [Example 247, anti 1-(1-oxo-2-(2-(quinolin-2-yl)cyclopropyl)-1,2-dihydroisoquinolin-8-yl)piperidine-4-carbonitrile] cannot be ordered by pIC50: greater than 7.00 for the first, greater than 7.00 for the second.

`COC1CCN(c2cccc3ccn([C@@H]4C[C@H]4c4ccc5ccccc5n4)c(=O)c23)CC1` (relative stereo) [Example 252, anti 8-(4-methoxypiperidin-1-yl)-2-(2-(quinolin-2-yl)cyclopropyl)isoquinolin-1(2H)-one (2E)-but-2-enedioate] and `O=c1c2c(N3CCC(O)CC3)cccc2ccn1[C@@H]1C[C@H]1c1ccc2ccccc2n1` (relative stereo) [Example 253, anti 8-(4-hydroxypiperidin-1-yl)-2-(2-(quinolin-2-yl)cyclopropyl)isoquinolin-1(2H)-one (2E)-but-2-enedioate] cannot be ordered by pIC50: greater than 7.00 for the first, greater than 7.00 for the second.

`O=c1c2c(-c3ccc(F)cc3)cccc2ccn1[C@@H]1C[C@H]1c1ccc2ccccc2n1` (relative stereo) [Example 267, anti 8-(4-fluorophenyl)-2-(2-(quinolin-2-yl)cyclopropyl)isoquinolin-1(2H)-one] and `O=c1c2c(N3CCOCC3)cccc2ccn1[C@@H]1C[C@H]1c1ccc2cc(F)ccc2n1` (relative stereo) [Example 271, anti 2-(2-(6-fluoroquinolin-2-yl)cyclopropyl)-8-morpholinoisoquinolin-1(2H)-one] cannot be ordered by pIC50: greater than 7.00 for the first, greater than 7.00 for the second.

`O=c1c2c(-c3cncnc3)cccc2ccn1[C@@H]1C[C@H]1c1ccc2cc(F)ccc2n1` (relative stereo) [Example 273, anti 2-(2-(6-fluoroquinolin-2-yl)cyclopropyl)-8-(pyrimidin-5-yl)isoquinolin-1(2H)-one] and `O=c1c2c(-c3ccncc3)ccnc2cnn1[C@@H]1C[C@H]1c1ccc2ccccc2n1` (relative stereo) [Example 277, anti 4-(pyridin-4-yl)-6-(2-(quinolin-2-yl)cyclopropyl)pyrido[2,3-d]pyridazin-5(6H)-one] cannot be ordered by pIC50: greater than 7.00 for the first, greater than 7.00 for the second.

`O=c1c2c(-c3ccncc3)cccc2cnn1[C@@H]1C[C@H]1c1ccc2cc(F)ccc2n1` (relative stereo) [compound 278] and `O=c1c2c(-c3ccnc(F)c3)csc2ccn1[C@@H]1C[C@H]1c1ccc2ccccc2n1` (relative stereo) [compound 286] cannot be ordered by pIC50: greater than 7.00 for the first, greater than 7.00 for the second.

`O=c1c2c(-c3ccncc3)csc2ccn1C1CC1c1ccc2ccccc2n1` (single isomer, unassigned) [293a] gave a pIC50 greater than 7.00.
`O=c1c2c(-c3ccncc3)csc2ccn1C1CC1c1ccc2ccccc2n1` (single isomer, unassigned) [293b] and `O=c1c2c(-c3ccnnc3)cccc2ccn1C1CC1c1ccc2ccccc2n1` (single isomer, unassigned) [Example 236, anti (−) 8-(pyridazin-4-yl)-2-(2-(quinolin-2-yl)cyclopropyl)isoquinolin-1(2H)-one] cannot be ordered by pIC50: greater than 7.00 for the first, greater than 7.00 for the second.

`O=c1c2c(-c3ccc(F)nc3)cccc2ccn1C1CC1c1ccc2ccccc2n1` (single isomer, unassigned) [Example 237, anti (−) 8-(6-fluoropyridin-3-yl)-2-(2-(quinolin-2-yl)cyclopropyl)isoquinolin-1(2H)-one] and `O=c1c2c(-c3ccnc(F)c3)cccc2ccn1C1CC1c1ccc2ccccc2n1` (single isomer, unassigned) [Example 238, anti (−) 8-(2-fluoropyridin-4-yl)-2-(2-(quinolin-2-yl)cyclopropyl)isoquinolin-1(2H)-one] cannot be ordered by pIC50: greater than 7.00 for the first, greater than 7.00 for the second.

`O=c1c2c(-c3cncnc3)cccc2ccn1C1CC1c1ccc2ccccc2n1` (single isomer, unassigned) [Example 240a, anti (+) 8-(pyrimidin-5-yl)-2-(2-(quinolin-2-yl)cyclopropyl)isoquinolin-1(2H)-one] and `O=c1c2c(N3CCOCC3)cccc2ccn1C1CC1c1ccc2ccccc2n1` (single isomer, unassigned) [Example 246a, anti (+) 8-morpholino-2-(2-(quinolin-2-yl)cyclopropyl)isoquinolin-1(2H)-one] cannot be ordered by pIC50: greater than 7.00 for the first, greater than 7.00 for the second.

`O=c1c2c(N3CCOCC3)cccc2ccn1C1CC1c1ccc2ccccc2n1` (single isomer, unassigned) [Example 246b, anti (−) 8-morpholino-2-(2-(quinolin-2-yl)cyclopropyl)isoquinolin-1(2H)-one] and `O=c1c2c(N3CCC4(COC4)C3)cccc2ccn1C1CC1c1ccc2ccccc2n1` (single isomer, unassigned) [Example 258, anti (−) 2-(2-(quinolin-2-yl)cyclopropyl)-8-(2-oxa-6-azaspiro[3.4]octan-6-yl)isoquinolin-1(2H)-one] cannot be ordered by pIC50: greater than 7.00 for the first, greater than 7.00 for the second.

`O=c1c2c(N3CC4COCC4C3)cccc2ccn1C1CC1c1ccc2ccccc2n1` (single isomer, unassigned) [Example 259, anti (−) 8-(dihydro-1H-furo[3,4-c]pyrrol-5(3H,6H,6aH)-yl)-2-(2-(quinolin-2-yl)cyclopropyl)isoquinolin-1(2H)-one] and `O=c1c2c(N3CCC(F)(F)CC3)cccc2ccn1C1CC1c1ccc2ccccc2n1` (single isomer, unassigned) [Example 260, anti (−) 8-(4,4-difluoropiperidin-1-yl)-2-(2-(quinolin-2-yl)cyclopropyl)isoquinolin-1(2H)-one] cannot be ordered by pIC50: greater than 7.00 for the first, greater than 7.00 for the second.

`COc1ccc(-c2cccc3ccn(C4CC4c4ccc5ccccc5n4)c(=O)c23)cc1` (single isomer, unassigned) [Example 270, anti (−) 8-(4-methoxyphenyl)-2-(2-(quinolin-2-yl)cyclopropyl)isoquinolin-1(2H)-one] and `O=c1c2c(-c3cncnc3)cccc2c(Cl)cn1C1CC1c1ccc2ccccc2n1` (single isomer, unassigned) [Example 276, anti (−)-4-chloro-8-(pyrimidin-5-yl)-2-(2-(quinolin-2-yl)cyclopropyl)isoquinolin-1(2H)-one] cannot be ordered by pIC50: greater than 7.00 for the first, greater than 7.00 for the second.

For `O=c1c2c(-c3ccncc3)cccc2ccn1C1CC1c1ccc2ccccc2n1` (single isomer, unassigned; (+)) [Example 222a, (+) 8-(pyridin-4-yl)-2-(2-(quinolin-2-yl)cyclopropyl)isoquinolin-1(2H)-one], the pIC50 was greater than 7.00.
